Usually melting point stands for the temperature of the solid-liquid transition. As usually defined, the IC50 is the point on the concentration scale where inhibition reaches its midpoint. Read a low IC50 as higher potency.

Data set [1] deals with T1, Rho kinase (Bos taurus, UniProt Q28021).
T1 construct: Rho kinase was selectively immobilized from the bovine brain extract fraction; from tissue; host or cells: bovine brain gray matter extract, captured on an anti-ROKII peptide antibody plate
Briefly: Assay of the inhibition of phosphorylation by Rho kinase. The data set is classed as biochemical. As to conditions: Rho kinase immobilized from bovine brain extract fraction on anti-Rho kinase antibody plate; 0.1 μM ATP ([γ-32P]ATP), histone (HF2A) substrate; room temperature, 4 hours. As for the experimental part:
Assay of the inhibition of phosphorylation by Rho kinase
A bovine brain extract fraction was prepared as follows. That is, a piece of gray matter was minced from bovine brain and suspended in a buffer solution for immunoprecipitation (10 mM tris(hydroxymethyl)aminomethane (Tris) (pH 7.5), 1% Triton X-100, 0.5% NP-40, 150 mM NaCl, 20 mM sodium fluoride, 1 mM ethylenediaminetetraacetic acid (EDTA), 1 mM ethylene glycol bis(β-aminoethyl ether)-N,N,N′,N′-tetraacetic acid (EGTA) and 0.2 mM phenylmethylsulfonyl fluoride (PMSF)) in two volumes of the gray matter. The tissue was homogenized by the use of a Potter type homogenizer made of polytetrafluoroethylene. After the homogenate was centrifuged at 20,000 g for 15 minutes, the supernatant was collected and then subjected to ultracentrifugation at 100,000 g for 60 minutes. The resulting supernatant was used as a bovine brain extract fraction.
An anti-Rho kinase antibody immobilized plate was prepared as follows. That is, a secondary antibody (anti-goat IgG (Fc) antibody) was diluted 300-fold with phosphate-buffered saline (PBS) (1 μl antibody/300 μl PBS), and 100 μl of the resulting dilution was added to each well of a 96-well ELISA plate. After coating at room temperature for 2 hours, the supernatant was removed. Thereafter, 100 μl of PBS was added and then the supernatant was removed (this washing operation was carried out twice). After the washing, 100 μl of a blocking buffer solution (0.05% Tween 20 and 0.25% bovine serum albumin (fatty acid free)/PBS) was added, followed by blocking at room temperature for 1 hour. After the blocking, each well was washed twice with 100 μl of the blocking buffer solution, and 100 μl of a primary antibody (anti-ROKII (Rho kinase) peptide antibody) diluted 200-fold (0.5 μl (0.1 μg)/100 μl) with PBS was added, followed by coating at room temperature for 2 hours. After the coating, each well was washed once with 100 μl of the blocking buffer solution. In addition, 100 μl of the blocking buffer solution was added to obtain an anti-Rho kinase antibody immobilized plate.
Using the aforesaid plate, Rho kinase was selectively immobilized from the bovine brain extract fraction, and phosphorylation by Rho kinase was assayed. To each well of the antibody-immobilized plate was added 100 μl of a bovine brain extract solution prepared so as to have a concentration of 1.5 mg/ml, and the reactions were incubated at 4° C. for 1 hour to immobilize Rho kinase on the plate. After completion of the reaction, the supernatant was removed and each well was washed three times with 100 μl of the buffer solution for immunoprecipitation. In addition, each well was washed three times with 100 μl of buffer solution A (50 mM Tris (pH 7.5), 10 mM MgCl2 and 150 mM NaCl). To each well of the plate freed from the supernatant was added 40 μl of the aforesaid buffer solution for reaction (50 mM Tris-HCl (pH 7.5), 2 mM EDTA and 10 mM MgCl2). Further, adenosine 5′-triphosphate (ATP) buffer (0.1 μM ATP (containing 6 nM [v-^32P]ATP) and 10 μg histone (HF2A)) containing each compound was prepared, and 10 μl of this solution was added to each well of the plate to initiate the reaction. The reactions were carried out at room temperature for 4 hours. The reaction was terminated by the addition of a phosphoric acid solution of a final concentration of 75 mM and 50 μM ATP. After completion of the reaction, 50 μl of the reaction solutions were spotted onto a phosphocellulose filter for Beta Plate 1205 (Wallac) only. After completion of the spot, the filter was washed with 150 ml of a 75 mM phosphoric acid solution for 10 minutes. This washing operation was repeated three times. After completion of the washing, the filter was dried and then wrapped in a cellophane bag, and 10 ml of a liquid scintillation cocktail was added. The amount of energy (β-ray radioactivity count) trapped in the filter was measured with Beta Plate 1205. […]

T1 sequence (Q28021 whole entry): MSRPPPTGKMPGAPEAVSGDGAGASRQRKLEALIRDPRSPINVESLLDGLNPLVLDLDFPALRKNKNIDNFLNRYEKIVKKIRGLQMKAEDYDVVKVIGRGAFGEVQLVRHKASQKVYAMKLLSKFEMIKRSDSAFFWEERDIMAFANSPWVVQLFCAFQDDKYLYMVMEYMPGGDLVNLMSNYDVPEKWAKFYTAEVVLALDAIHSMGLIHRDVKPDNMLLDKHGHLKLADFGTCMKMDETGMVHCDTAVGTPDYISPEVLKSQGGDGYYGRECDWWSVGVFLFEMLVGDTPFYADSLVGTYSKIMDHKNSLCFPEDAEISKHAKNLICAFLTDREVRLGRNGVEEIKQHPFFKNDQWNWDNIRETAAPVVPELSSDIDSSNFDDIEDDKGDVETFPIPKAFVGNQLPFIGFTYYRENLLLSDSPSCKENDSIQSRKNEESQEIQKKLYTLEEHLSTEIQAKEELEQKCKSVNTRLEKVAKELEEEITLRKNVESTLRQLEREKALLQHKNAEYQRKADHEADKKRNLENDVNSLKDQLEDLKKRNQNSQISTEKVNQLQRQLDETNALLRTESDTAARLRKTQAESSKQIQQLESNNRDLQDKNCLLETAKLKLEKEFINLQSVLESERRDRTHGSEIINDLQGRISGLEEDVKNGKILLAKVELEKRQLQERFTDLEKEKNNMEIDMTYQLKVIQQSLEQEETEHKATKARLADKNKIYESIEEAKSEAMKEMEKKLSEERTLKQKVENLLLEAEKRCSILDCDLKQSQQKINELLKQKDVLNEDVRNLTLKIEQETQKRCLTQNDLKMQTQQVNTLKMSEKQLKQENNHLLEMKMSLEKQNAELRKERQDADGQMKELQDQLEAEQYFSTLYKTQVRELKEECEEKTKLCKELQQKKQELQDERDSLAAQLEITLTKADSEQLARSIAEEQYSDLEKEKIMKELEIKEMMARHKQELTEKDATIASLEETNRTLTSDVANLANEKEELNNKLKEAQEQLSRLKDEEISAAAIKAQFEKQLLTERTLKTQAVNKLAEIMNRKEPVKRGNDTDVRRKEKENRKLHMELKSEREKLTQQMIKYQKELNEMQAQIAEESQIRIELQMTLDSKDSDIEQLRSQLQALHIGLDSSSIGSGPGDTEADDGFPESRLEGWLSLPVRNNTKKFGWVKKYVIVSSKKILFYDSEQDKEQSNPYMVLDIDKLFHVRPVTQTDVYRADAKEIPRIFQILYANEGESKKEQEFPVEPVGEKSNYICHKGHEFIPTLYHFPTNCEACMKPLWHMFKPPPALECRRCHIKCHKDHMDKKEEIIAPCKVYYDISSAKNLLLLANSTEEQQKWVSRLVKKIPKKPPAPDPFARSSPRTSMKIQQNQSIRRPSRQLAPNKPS

For the compound `Cl.NC(=O)c1ccc(NC2CCNCC2)cc1`, the melting point is 292 to 294 °C (dec.). The compound `NC(=O)c1ccc(NC2CCN(Cc3ccccc3)CC2)cc1` [Example 10, 4-[(1-benzylpiperidin-4-yl)amino]benzamide] yielded a melting point of 192 to 193 °C. Further, the IC50 in data set [1] was 2000 nM.

`NC(=O)c1ccc(NC(=O)C2CCCN(Cc3ccccc3)C2)cc1` (centres unmarked) [Example 13, N-[4-(aminocarbonyl)phenyl]-1-benzylpiperidine-3-carboxamide] returned a melting point of 211 to 212 °C. On to `NC(=O)c1ccc(OC2CCN(Cc3ccccc3)CC2)cc1` [Example 25, 4-[(1-benzylpiperidin-4-yl)oxy]benzamide], for which the melting point lay in the range of 166 to 168 °C. `COc1cc(NC2CCN(Cc3ccccc3)CC2)ccc1C(N)=O` [Example 28, 4-[(1-benzylpiperidin-4-yl)amino]-2-methoxybenzamide]: the melting point is 155 to 157 °C. Still for that read-out and setting: next, `COc1cc(NCc2ccccc2)ccc1C(N)=O` [Example 85, 4-(benzylamino)-2-methoxybenzamide]: 175 to 176 °C. As for `COc1cc(N[C@H]2CC[C@H](N)CC2)c(Cl)cc1C(N)=O` [Example 113, 4-[(trans-4-aminocyclohexyl)amino]-5-chloro-2-methoxybenzamide], the IC50 in data set [1] was 21.8 nM. That is a double-digit nanomolar value. In turn, `COc1cc(NCc2ccncc2)ccc1C(N)=O` [Example 128, 2-Methoxy-4-[(pyridin-4-ylmethyl)amino]-benzamide] yielded a melting point of 180 to 183 °C. With `NC(=O)c1cc(Cl)c(N[C@H]2CC[C@H](N)CC2)cc1F` [Example 141, 4-[trans-(4-aminocyclohexyl)-amino]-5-chloro-2-fluorobenzamide], the concentration for half-maximal inhibition (IC50) in data set [1] is 28.7 nM. Consider `COc1cc(N[C@H]2CC[C@H](N)CC2)c(F)cc1C(N)=O` [Example 158, 4-[(trans-4-aminocyclo-hexyl)amino]-5-fluoro-2-methoxybenzamide], for which the IC50 in data set [1] is 28.4 nM. For the compound `COc1cc(O[C@H]2CC[C@H](N)CC2)c(Cl)cc1C(N)=O` [Example 159, 4-[(trans-4-aminocyclohexyl)-oxy]-5-chloro-2-methoxybenzamide], the IC50 in data set [1] was 24.4 nM. For `NC(=O)c1cc(F)c(N[C@H]2CC[C@H](N)CC2)cc1F` [Example 162, 4-[trans-(4-aminocyclohexyl)-amino]-2,5-difluorobenzamide], in data set [1], the IC50 is 26.4 nM.

As for `NC(=O)c1cc(Br)c(N[C@H]2CC[C@H](N)CC2)cc1F` [Example 163, 4-[trans-(4-aminocyclohexyl)-amino]-5-bromo-2-fluorobenzamide], in data set [1], the IC50 is 24.8 nM.

Source of the values: patent publication US20050182040A1, “Benzamide derivatives” (priority 2002, published 2005).
